Experimental data reported in patent publication EP0229966A1, “Process for the control of weeds in useful plant cultures and means for performing the process” (SIEGFRIED AKTIENGESELLSCHAFT, priority 1985, dated 1987).

Legend:
[1] = test system: 7 repräsentative Unkraut- arten; test: Greenhouse pot test, spray directly after sowing, EWRC rating, weeds (Tabelle I); type: in vivo; conditions: EWRC scale, 1 = völlige Abtötung, 9 = völlige Wirkungslosigkeit
Source text: (§1) Der Tabelle 1 liegen orientierende Versuche zugrunde, welche im klimatisierten Gewächshaus durchgeführt wurden, wobei 7 repräsentative Unkraut- arten und als Beispiel einer Kulturpflanze Raps benützt wurden. Unmittelbar nach dem Beschicken der Kunststofftöpfe mit dem Saatgut wurde (abge-
(§2) sehen von der unbehandelt bleibenden Kontrollserie) je eine Serie behandelt durch Aufsprühen einer wässrigen Suspension bzw. Emulsion, welche als Herbizid entweder nur den Aktivstoff I oder II in unterschiedlicher Menge oder beide Stoffe kombiniert in unterschiedlichen Mengen und Mengenverhältnissen enthielt. Die eingesetzten Aktivstoff-Mengen wurden umgerechnet auf die Aufwändmengen in Gramm Wirkstoff pro Hektar. Die Effekte wurden innert vier Wochen mehrmals begutachtet und protokolliert.
(§3) Die in der Tabelle I enthaltenen Wirkungsangaben wurden nach der Bonitierungs-Skala des European Weed Research Council (EWRC) bestimmt, wobei hier sowohl für Unkräuter wie auch für Kulturpflanze der Wert 1 der völligen Abtötung und der Wert 9 der völligen Wirkungslosigkeit zugeordnet wurde: […]

Raps = test: Greenhouse pot test, spray directly after sowing, crop tolerance (Tabelle I); type: in vivo
Source text: as §1, §2, §3

[2] = test system: Chenopodium album ("CHEAL"); test: Field trial, Swiss Mittelland, percent weed control from plant counts (Tabelle II); type: in vivo, Chenopodium album L.; conditions: four weeks after treatment
Source text: Die Tabelle II zeigt Resultate von Versuchen, die im Freien, nämlich im schweizerischen Mittelland auf mittelschwerem sandigem Lehmboden durchgeführt wurden. Die hier wiedergegebenen Werte sind Prozent-Zahlen, die errechnet wurden aufgrund der Formel [formula] wobei AK die Individuenzahl der jeweiligen Unkraut-Art pro Flächeneinheit der unbehandelten Kontrollparzelle und AB die entsprechende Individuenzahl pro Flächeneinheit der jeweiligen behandelten Partelle bedeutet. Die Ermittlung der Wirkung erfolgte vier Wochen nach Behandlung.

Maus = conditions: cited from earlier work
Ratte = conditions: cited from earlier work

SMILES	Durchschnittswert (EWRC) gegenüber den 7 Unkraut-Arten ([1]; 4000 g/ha Aktivstoff I alone)	Schädigung Raps (Raps; 2000 g/ha Aktivstoff I alone)	Wirkung auf Chenopodium album ([2]; 4000 g/ha Aktivstoff I alone)	LD 50 p.o. (Maus)	Durchschnittswert (EWRC) gegenüber den 7 Unkraut-Arten ([1]; 1000 g/ha Aktivstoff II alone)	Schädigung Raps (Raps; 500 g/ha Aktivstoff II alone)	Wirkung auf Chenopodium album ([2]; 1000 g/ha Aktivstoff II alone)	LD 50 p.o. (Ratte)
CCN(CC)C(=O)SCc1ccccc1Cl [Aktivstoff I, S-(2-Chlorbenzyl)-N,N-diethyl-thiocarbamat]	3,5	deutlich geschädigt	87%	~1850 mg/kg	–	–	–	–
Cc1cccc(C)c1N(Cn1cccn1)C(=O)CCl [Aktivstoff II, N-(2,6-Dimethylphenyl)-N-(1-pyrazolylmethyl)-chloracetamid]	–	–	–	–	5,5	deutlich geschädigt	91%	2150 mg/kg
